# Test results: patent US20180161383A1, “NATURAL PHARMACEUTICAL COMPOSITION FOR TREATING MENOPAUSAL MENTAL DEPRESSION AND ATYPICAL DEPRESSIVE DISORDER AND APPLICATION THEREOF” (SHAANXI TIANKUI BIOMEDICINE TECHNOLOGY LIMITED COMPANY, priority 2015, published 2018)
# Columns and labels:
# Assay type in all cases: in vivo
# dopamine = experiment: ELISA, content of dopamine in serum of rats; conditions: rat serum, positive drug group, dose not given
# Experimental: (§1) drenching animals in sequence to put to death within 3 cycles, enabling the animals to have empty stomachs for 12 hours before putting to death, and performing intraperitoneal anesthesia with 3% of pentobarbital sodium at a dose of 0.1 ml/100 g; and taking 8 ml of whole blood in a centrifuge tube, centrifuging at a rate of 4000 r/min for 15 min, separating the serum after centrifuging, labeling, and separately filling and preserving in a refrigerator of −20° C.; 2) ELISA Determination Method is as Follows: Detection is performed according to description of an ELISA kit. Before use, all reagents are fully and uniformly mixed. Lots of bubbles should not be produced in liquid, so as to avoid generating a sample adding error due to addition of lots of bubbles during sample adding. The quantity of needed plates is determined according to a quantity of to-be-detected samples and the quantity of standard substances. […] However, since many samples need to be determined, single holes should be made according to actual conditions. […] A basic principle of enzyme-labeled immunoassay is as follows: an antibody connected onto a solid-phase carrier and an enzyme-labeled antibody are respectively bound to two antigenic determinants on a detected antigen molecule in the sample to form a solid-phase antibody-antigen-enzyme-labeled antibody immune complex. […]
# [1] = test system: follicle-stimulating hormone; experiment: ELISA, content of follicle-stimulating hormone in serum of rats; conditions: rat serum, positive drug group, dose not given
# Experimental: as §1
# cAMP = experiment: ELISA, content of cAMP in serum of rats; conditions: rat serum, positive drug group, dose not given
# Experimental: as §1
# noradrenaline = experiment: ELISA, content of noradrenaline in serum of rats; conditions: rat serum, positive drug group, dose not given
# Experimental: as §1
# IL-8 = experiment: ELISA, content of IL-8 in serum of rats; conditions: rat serum, positive drug group, dose not given
# Experimental: as §1
# IL-2 = experiment: ELISA, content of IL-2 in serum of rats; conditions: rat serum, positive drug group, dose not given
# Experimental: as §1
# [2] = test system: rats suffering from the menopausal depression; experiment: open-field water drinking test of rats; conditions: positive drug group, dose not given
# [3] = test system: rats suffering from the menopausal depression; experiment: open-field test of rats; parameters: After medication minus Before medication (Fecal weight) / Fecal weight: unit not given here; conditions: positive drug group, dose not given
# [4] = test system: adrenocorticotrophic hormone; experiment: ELISA, content of adrenocorticotrophic hormone in serum of rats; conditions: rat serum, positive drug group, dose not given
# Experimental: as §1
# 5-hydroxytryptamine = experiment: ELISA, content of 5-hydroxytryptamine in serum of rats; conditions: rat serum, positive drug group, dose not given
# Experimental: as §1
# cGMP = experiment: ELISA, content of cGMP in serum of rats; conditions: rat serum, positive drug group, dose not given
# Experimental: as §1
# IL-6 = experiment: ELISA, content of IL-6 in serum of rats; conditions: rat serum, positive drug group, dose not given
# Experimental: as §1
# oxytocin = experiment: ELISA, content of oxytocin in serum of rats; conditions: rat serum, positive drug group, dose not given
# Experimental: as §1
# estradiol = experiment: ELISA, content of estradiol in serum of rats; conditions: rat serum, positive drug group, dose not given
# Experimental: as §1
smiles,measurement,setting,value
"Fc1ccc([C@@H]2CCNC[C@H]2COc2ccc3c(c2)OCO3)cc1 [Paroxetine, paroxetine]",DA,dopamine,7.6595 ± 1.3337 pg/L
same,FSH,[1],3.7068 ± 0.6242 IU/L
same,cAMP,cAMP,2.7761 ± 0.3726 U/L
same,NA,noradrenaline,32.5359 ± 5.6128 ng/L
same,IL-8,IL-8,196.479 ± 14.596 ng/L
same,IL-2,IL-2,341.853 ± 59.289 ng/L
same,Number of times approaching to water bottles,[2]; rats after medication,10.43 ± 5.09
same,Number of times standing,[2]; rats after medication,11.28 ± 4.23
same,Water drinking latent period,[2]; rats after medication,88.86 ± 20.05
same,Water drinking time,[2]; rats after medication,112.14 ± 50.83
same,After medication minus Before medication (Frequencies of approaching water bottles),[2]; rats,6.5742 ± 4.0443
same,After medication minus Before medication (Standing frequency),[2]; rats,7.5728 ± 4.5413
same,After medication minus Before medication (Water drinking time),[2]; rats,112.14 ± 50.83
same,After medication minus Medication (Water drinking latent period),[2]; rats,70.43 ± 35.65
same,Fecal weight,[3]; rats after medication,0.14 ± 0.38
same,Horizontal scores,[3]; rats after medication,78.29 ± 28.18
same,Vertical scores,[3]; rats after medication,9.57 ± 4.68
same,After medication minus Before medication (Fecal weight),[3]; rats,−0.94 ± 0.71
same,After medication minus before medication (horizontal scores),[3]; rats,41.14 ± 28.54
same,ACTH,[4],16.3682 ± 1.8767 ng/L
same,5-HT,5-hydroxytryptamine,42.9048 ± 6.2922 ng/L
same,cGMP,cGMP,1.8333 ± 0.4686 U/L
same,IL-6,IL-6,14.9800 ± 2.9183 ng/mL
same,OT,oxytocin,4.1889 ± 0.8811 ng/L
same,E2,estradiol,10.0566 ± 0.7140 ng/L
